≈ marks a conversion by molar mass, not a printed value.

Data set [1] concerns MDA-MB-231 (human adenocarcinoma mammary gland). Briefly: WST-1 proliferation assay, MDA-MB-231. The class given is cell-based. Particulars: Homo sapiens, MDA-MB-231, 72 h, MDA-MB-231 cells, 72 h exposure, read-out: Antiproliferative activity IC50 MDA-MB-231. As for the experimental part:
(§1) Compounds were evaluated for their anticancer activity using three cultured cell lines: SNB-19 (human glioblastoma, DSMZ - German Collection of Microorganisms and Cell Cultures, Braunschweig, Germany), C-32 (human amelanotic melanoma, ATCC-American Type Culture Collection, Manassas, VA, USA), MDA-MB-231 (human adenocarcinoma mammary gland, ATCC, Manassas, VA, USA), and HFF-1 (human fibroblast cell line, ATCC, Manassas, VA, USA). The cultured cells were kept at 37 °C and 5% CO2. The cells were seeded (1 × 10^4 cells/well/100 μL DMEM supplemented with 10% FCS and streptomycin and penicillin) using 96-well plates (Corning). The cells were counted in a hemocytometer (Burker’s chamber) using a phase contrast Olympus IX50 microscope equipped with Sony SSC-DC58 AP camera and Olympus DP10 digital camera.
(§2) The antiproliferative effect of the compounds obtained from both the cancer and the normal cells was determined using the Cell Proliferation Reagent WST-1 assay (Roche Diagnostics, Mannheim, Germany). This colorimetric assay is based on the viable cell’s ability to cause the bright red-colored stable tetrazolium salt (2-(4-iodophenyl)-3-(4-nitrophenyl)-5-(2,4-disulfophenyl)-2H-tetrazolium, monosodium salt) to cleave to the dark red soluble formazan by cellular enzymes. An expansion in the number of viable cells results in an increase in the overall activity of mitochondrial dehydrogenases in the sample. An increase in the amount of formazan dye formed correlates to the number of metabolically active cells in the culture. The formazan dye produced by metabolically active cells is quantified by a scanning ELISA reader that measures the absorbance of the dye solution at appropriate wavelengths. The examined cells were exposed to the tested compounds for 72 h at various concentrations between 0.1 and 100 μg/mL (prepared initially at a concentration of 1 mg/mL in DMSO). The control was performed in order to check that DMSO has no effect on the cells at the concentration used. The cells were incubated with WST-1 (10 μL) for 1 h and the absorbance of the samples was measured against a background control at 450 nm using a microplate reader with a reference wavelength at 600 nm. The results are expressed as the means of at least two independent experiments performed in triplicate. […] The IC50 values (a concentration of a compound that is required for 50% inhibition) were calculated from the dose–response relationship with respect to control.

Data set [2] has as its system HFF-1 (human fibroblast cell line). Put plainly: WST-1 proliferation assay, normal fibroblasts HFF-1. The class given is cell-based. The settings on record: normal human fibroblasts HFF-1, 72 h exposure, WST-1; read-out: Antiproliferative activity IC50 HFF-1. The method, then: as §1
as §2, with “The control was performed in order to check that DMSO has no effect on the cells at the concentration used.” left out

Data set [3] has as its system C-32 (human amelanotic melanoma). Put plainly: WST-1 proliferation assay, C-32. Particulars: Homo sapiens, C32, 72 h, C-32 cells, 72 h exposure, read-out: Antiproliferative activity IC50 C-32. It counts as cell-based. As for the experimental part: as §1, §2
Data set [4] deals with SNB-19 (human glioblastoma). Put plainly: WST-1 proliferation assay, SNB-19. It counts as cell-based. Particulars: Homo sapiens, SNB-19, 72 h, SNB-19 cells, 72 h exposure, read-out: Antiproliferative activity IC50 SNB-19. As for the experimental part: as §1, §2

In turn, `Cn1cnc2nc(Cl)nc(SCC#CCN3CCOCC3)c21` [Compound 2b, 2-Chloro-6-(4-N-morpholinylbut-2-ynylthio)-7-methylpurine] yielded a melting point of 168 to 169 °C. Besides, the IC50 in data set [1] worked out at 66.3 µg/mL (≈ 196 µM). In addition, in data set [2], the IC50 was determined as 20.1 µg/mL (≈ 59.5 µM). Further, in data set [3], the IC50 came to 125 µg/mL (≈ 370 µM). Besides, the half-maximal inhibitory concentration (IC50) in data set [4] is 35.4 µg/mL (≈ 105 µM).
In the same order, the values of `Cn1c(SCC#CCN2CCCCC2)nc2c1c(=O)[nH]c(=O)n2C` [Compound 10b, 8-(4-N-piperidinylbut-2-ynylthio)-3,7-dimethylxanthine] are 223 to 225 °C, 364 µg/mL (≈ 1050 µM), 30.4 µg/mL (≈ 87.5 µM), 355 µg/mL (≈ 1020 µM) and 166 µg/mL (≈ 478 µM).

These data come from PMC5904222, “Synthesis and anticancer activity of multisubstituted purines and xanthines with one or two propynylthio and aminobutynylthio groups” (Medicinal Chemistry Research, 2018).
